In patent publication US12042523B2, “Compositions and methods for managing or improving bone disorders, joint disorders, cartilage disorders, or a combination thereof” (Unigen, Inc., priority 2014, dated 2024):

What was measured:
Format in all cases: in vivo, rat
[1] = tested on: MIA-induced osteoarthritis in Sprague-Dawley rats; assay: Histopathology of femorotibial joint, modified Mankin score, MIA-induced OA model
Procedure: Treatment started a week before MIA injection. […] The standardized blends for each treatment groups are defined as UP446=1A:4S, UP1306=1A:2M and the composition at the given dosage=0.282A:0.308S:0.410M where “A”, “S” and “M” stands for acacia, scutellaria and moms, respectively. On the induction day, isoflurane (Lot #B66H15A, Piramal Enterprise Ltd. Andhra Pradesh, India) anesthetized rats were injected with 0.8 mg of MIA (Lot #A0352046, Acros Organics, New Jersey, USA) in 50 μL saline solution into the intra-articular pocket of left femorotibial (knee) joint using 26 G needle an hour after treatment. Normal control rats were injected with an equal volume of saline. […] Body weights were measured once a week to calculate the respective weekly dosage of each group. The merit of combining UP1306 and UP446 was then evaluated using the Colby's equation (Colby, 1967). Pain sensitivity percent inhibition values were used to determine the calculated efficacy values and compared to the observed percent inhibition values of the composition.
At necropsy, animals were asphyxiated with CO2 and the femorotibial joint was carefully dissected out, fixed in 10% buffered formalin and sent to Nationwide Histology (Veradale, WA, USA) for further histopathology analysis. The fixed specimens were then decalcified with Calci-Clear Rapid for 1 and a half days and embedded in paraffin. Standardized 5 μm serial sections were obtained at the medial and lateral midcondylar level in the sagittal plane and were stained with hematoxylin and eosin (HE) and Safranin O-fast green to enable evaluation of proteoglycan content. A modified Mankin system (Mankin et al., 1981) was used to score structural and cellular alterations of articular components as indications of disease progression and/or treatment efficacy. The histological analysis was conducted by a certified Pathologist at Nationwide Histology.

[2] = tested on: urine CTX-II (C-telopeptide of type II collagen); assay: Urine CTX-II ELISA in MIA-induced OA model
Procedure: Treatment started a week before MIA injection. […] On the induction day, isoflurane (Lot #[…] Enterprise Ltd. […], India) anesthetized rats were injected with 0.8 mg of MIA (Lot #A0352046, Acros Organics, New Jersey, USA) in 50 μL saline solution into the intra-articular pocket of left femorotibial (knee) joint using 26 G needle an hour after treatment. Normal control rats were injected with an equal volume of saline. […] Body weights were measured once a week to calculate the respective weekly dosage of each group. The merit of combining UP1306 and UP446 was then evaluated using the Colby's equation (Colby, 1967). Pain sensitivity percent inhibition values were used to determine the calculated efficacy values and compared to the observed percent inhibition values of the composition. CTX-II ELISA was performed according to the kit manufacturer's specifications. […] Rat urine samples were thawed on ice and diluted 1:3 with Sample Diluent. 100 μL of samples and standards were added to a 96-well plate pre-coated with CTX-II antibody. The plate was covered and incubated at 37° C. for 2 hours. The liquid was aspirated from each well, then 100 μL of Detection Reagent A working solution was added to each well. The plate was covered and incubated at 37° C. for 1 hour. The solution was aspirated from each well and the plate was washed three times with 1× Wash Buffer. 100 μL of Detection Reagent B working solution was added to each well, then the plate was covered and incubated at 37° C. for 1 hour. The solution was aspirated from each well and the plate was washed five times with 1× Wash Buffer. 90 μL of Substrate Solution was added to each well, then the plate was covered and incubated at 37° C. for 30 minutes. […] Stop Solution was added to each well, and the optical density at 450 nm was detected using a Tecan Genios plate reader. CTX-II concentrations for each sample were determined by multiplying by the dilution factor and fitting the value to the standard curve. To offset the variations in urine flow between rats, values were normalized to total urine protein.

[3] = tested on: MIA-induced osteoarthritis in Sprague-Dawley rats; assay: Bone histomorphometry (Micro CT) in therapeutic MIA induced osteoarthritis model
Procedure: Male Sprague-Dawley (SD) rats weighing 170˜230 g (6 weeks of age) were purchased and acclimated for one week. […] Anesthetized rats were injected with 0.8 mg of MIA in 50 μl saline solution into the intra-articular pocket. One week after MIA induction, samples were administrated daily with gastric tube for 6 weeks. Bone histomorphometry was evaluated on both femur and tibia per knee joint in rats from the MIA-induced osteoarthritis model by Micro CT scan using an Inveon™ unit (Siemens Healthcare USA, Inc., Pennsylvania, USA) at Korea Basic science institute, Ochang, Korea. BMD was used as an indicator of osteoporosis and fracture risk; BV/TV as an indicator of trabecular bone volume refers to the ratio of the trabecular bone volume to the total volume; BS/BV as an indicator of trabecular turnover refers to the ratio of the trabecular bone surface to the trabecular bone volume of a region of interest.

[4] = tested on: MIA-induced osteoarthritis in Sprague-Dawley rats; assay: Bone histomorphometry (Micro CT) in concurrent MIA-induced osteoarthritis model
Procedure: Male Sprague-Dawley (SD) rats weighing 170˜230 g (6 weeks of age) were purchased and acclimated for one week. […] Anesthetized rats were injected with 0.8 mg of MIA in 50 μl saline solution into the intra-articular pocket at 1 hour after sample treatments. And then samples were administrated daily with gastric tube for 6 weeks. Bone histomorphometry was evaluated on both femur and tibia per knee joint by Micro CT scan using an Inveon™ unit (Siemens Healthcare USA, Inc., Pennsylvania, USA) at Korea Basic science institute, Ochang, Korea. BV/TV as an indicator of trabecular bone volume is the ratio of the trabecular bone volume to the total volume. BMD used as an indicator of osteoporosis and fracture risk. Therefore, we checked those markers whether GM has the efficacy on the osteoporosis. […] Anesthetized rats were injected with 0.8 mg of MIA in 50 μl saline solution into the intra-articular pocket at 1 hour after sample treatments. Samples were administrated daily with gastric tube for 6 weeks. Bone histomorphometry was evaluated on both femur and tibia per knee joint by Micro CT scan using an Inveon™ unit (Siemens Healthcare USA, Inc., Pennsylvania, USA) at Korea Basic science institute, Ochang, Korea. BV/TV as an indicator of trabecular bone volume is the ratio of the trabecular bone volume to the total volume. BMD used as an indicator of osteoporosis and fracture risk.

[5] = MIA 0.8 mg/joint, Diclofenac 10, UP1306 400, UP446 250, Composition 650 mg/kg
[6] = MIA-induced OA rats, urine, week 5 of daily oral treatment
[7] = treatment from one week after MIA, daily 6 weeks, Diclofenac 10 mg/kg, GM 500 mg/kg, mean ± SD
[8] = MIA 1 hour after sample treatment, daily 6 weeks, Diclofenac 10 mg/kg, GM 500 mg/kg, mean ± SD

## O=C(O)Cc1ccccc1Nc1c(Cl)cccc1Cl [Diclofenac]
[1]; AM 400, UP446 250, AU 650, Diclofenac 10 mg/kg
  reduction in overall structural abnormality: 51.4%
[1]; Diclofenac 10, AM 400, UP446 250, AU 650 mg/kg
  reduction in matrix GAG loss (Safranin O): 46.0%
[1]; [5]
  Bone at Articular surfaces (modified Mankin score 0-6): 0.70 ± 0.24
  Fibrovascular proliferation (modified Mankin score 0-6): 1.55 ± 0.69
  Inflammation/ Cellular infiltration (modified Mankin score 0-6): 0.55 ± 0.15
  Matrix GAGs (modified Mankin score 0-6): 1.44 ± 0.38
  Structural abnormality (modified Mankin score 0-6): 1.23 ± 0.36
[2]; [6]
  Ratio (CTX-II/Protein), uCTX-II normalized to total protein: 64.41
  uCTX-II (Mean ± SD): 304 ± 233 ng/L
[2]; after 5 weeks of daily oral treatment, diclofenac 10, UP1306+UP446 650, UP1306 400, UP446 250 mg/kg
  reduction in urine CTX-II: 31.33%
[3]; therapeutic MIA model
  BV/TV compared with vehicle group: decreasing tendency
[3]; [7]
  BMD (mg/cm3): 896.2 ± 29.4 mg/cm3
  BS/BV: 9.11 ± 1.41
  BV/TV (%): 65.35 ± 7.75%
[4]; [8]
  BMD (mg/cm3): 982.3 ± 19.44 mg/cm3
  BV/TV (%): 71.89 ± 5.43%
[4]; concurrent MIA model
  BMD compared with vehicle group: significantly increased
  BV/TV compared with vehicle group: tendency to increase
